# Test results published in US20120015925A1, “NOVEL BENZOTHIAZEPINE AND BENZOTHIEPINE COMPOUNDS” (ASAHI KASEI PHARMA CORPORATION, priority 2004, published 2012).
# Tests used:
# [1] = test system: rats fed cholesterol food; assay: Model for hepatic disorder associated with cholestasis (hepatic cell apoptosis): mitotic cells in liver; type: in vivo, rat; details: oral twice per day, 4 days, total in 10 sites of 200 μm×200 μm, control group 50 ± 13
# Source text: In the present test example, a model for the hepatic disorder associated with cholestasis was employed with reference to apoptosis induction in hepatic cells in a hypercholesterolemia model described in Am. J. Physiol., 1995, 268, G613-G621.
# That is, the food containing 0.4% cholesterol and 0.5% bile acid was given to SD (IGS) strain male rats at 7 to 9 weeks of age for 4 days, and the test compound was orally administered forcibly twice per day everyday from the starting date of cholesterol food feeding (each n=8). As a control, another group (n=8) were merely fed cholesterol food. The blood was exsanguinated from abdominal aorta 3 hours after the drug administration on the final day of the experiment. Then the liver was immediately removed and fixed in 10% neutral buffered formalin solution (brand name: FA-F96, supplied from Kokusan Chemical Co. Ltd.). After fixing, the sample was dehydrated and embedded using a closed type automatic embedding apparatus (brand name: ETP-180B, supplied from Sakura Finetek Japan). […] A total number of mitotic cells in different 10 sites in the range of 200 μm×200 μm on each section was counted.
# ALANINE TRANSPORTER = assay: In vitro assay using Cos 7 cells for Na+ dependent amino acid transporter ([3H]-alanine uptake); type: cell-based; details: [3H]-alanine 8 μM, 37° C., 60 minutes, read-out: IC50 (μM) AGAINST ALANINE TRANSPORTER
# Description: In the present Test Example, in vitro assays of the compounds using Cos 7 cells for various transporters were performed according to the description in JP-H10-505830 A.
# That is, 2.5×10^5 cells/well of Cos 7 cells were seeded in a 24-well plate, and after two days, the cells were washed once with the assay buffer, i.e., Hanks buffer containing 25 mM glucose and 10 mM HEPES (pH 7.4). The assay buffer was then replaced with the assay buffer containing the test compound. [^3H]-alanine (brand name: NET-348, Daiich Pure chemical) or [^3H]-leucine (brand name: NET-460, Daiich Pure chemical) or [^3H]-phenylalanine (brand name: MT903, MORAVEK) or [^3H]-methionine (brand name: MT862, MORAVEK) or [^3H]-lysine (brand name: MT909, MORAVEK) or [^3H]-choline (brand name: TRK593, Amersham Biosciences) at a final concentration of 8 μM was added thereto and incubated at 37° C. for 60 minutes so that they were taken into Cos 7 cells. […] Then the radioactivity was measured using the liquid scintillation counter. The inhibitory rate (%) was calculated from the radioactivity in the control in which no test compound had been used and the radioactivity when the test compound at the certain concentration had been used, and the concentration of the compound which inhibited 50% of the transporter activity was calculated.
# rat IBAT = biological target: T1, rat IBAT (Rattus norvegicus, UniProt Q62633); assay: In vitro assay using Cos 7 cells, transiently expressed rat IBAT; type: cell-based; details: [3H]-taurocholate 8 μM uptake, 37° C., 60 minutes
# T1 sequence (Q62633 1-348): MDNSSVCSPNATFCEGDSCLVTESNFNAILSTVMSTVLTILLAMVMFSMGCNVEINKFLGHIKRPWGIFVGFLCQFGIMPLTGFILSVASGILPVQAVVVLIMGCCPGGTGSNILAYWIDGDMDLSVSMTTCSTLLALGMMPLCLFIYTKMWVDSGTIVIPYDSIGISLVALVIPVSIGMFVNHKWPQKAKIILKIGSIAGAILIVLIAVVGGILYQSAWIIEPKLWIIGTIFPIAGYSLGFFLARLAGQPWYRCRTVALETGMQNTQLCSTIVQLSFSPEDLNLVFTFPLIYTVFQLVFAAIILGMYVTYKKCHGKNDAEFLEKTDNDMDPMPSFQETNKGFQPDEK
# Description: In the present Test Example, an in vitro assay of compounds using Cos 7 cells as to inhibitory activity on transiently expressed human IBAT or rat IBAT transporter was performed according to the method described in Am. J. Physiol., 274, G157-169.
# That is, […] cells/well of Cos 7 cells were seeded in a 24-well plate, and after one day, the cells were transfected with 0.3 μg/well of cDNA of human IBAT or rat IBAT using FuGENE6 (supplied from Roche). After culturing for one day after the transfection, the cells were washed once with the assay buffer, i.e., Hanks buffer containing 25 mM glucose and 10 mM HEPES (pH 7.4). The assay buffer was then replaced with the assay buffer containing the test compound. [^3H]-Taurocholate at a final concentration of 8 μM was added thereto and incubated at 37° C. for 60 minutes so that [^3H]-taurocholate was taken into Cos 7 cells by the action of human IBAT or rat IBAT. The cells were washed twice with the assay buffer containing 1 mM taurocholate, and subsequently lysed with 0.2 M NaOH to stop the reaction. The cell lysate was added to 4 mL of liquid scintillation cocktail, which was then thoroughly vortexed. Then the radioactivity was measured using the liquid scintillation counter.
Structure (SMILES),"MITOTIC CELLS IN LIVER (AVERAGE ± STANDARD ERROR, n = 8) ([1]; 0.1 mg/kg per administration)","MITOTIC CELLS IN LIVER (AVERAGE ± STANDARD ERROR, n = 8) ([1]; 1 mg/kg per administration)",IC50 (ALANINE TRANSPORTER) [µM],IC50 (rat IBAT) [µM]
"CCCCC1(CCCC)CS(=O)(=O)c2ccc(N(C)C)cc2C(c2cccc(NC(=S)CCCCC[N+]34CCC(CC3)CC4)c2)N1.[Br-] (stereo not shown) [EXAMPLE 1, 1-{5-[3-(3,3-dibutyl-7-dimethylamino-1,1-dioxo-2,3,4,5-tetrahydro-1,4-benzothiazepine-5-yl)phenylthiocarbamoyl]pentyl}-1-azoniabicyclo[2.2.2]octane bromide]",36 ± 13,28 ± 7,33,–
CCCCC1(CCCC)CS(=O)(=O)c2ccc(N(C)C)cc2C(c2cccc(NC(=S)Nc3ccc(C[N+](C)(C)Cc4ccccc4)cc3)c2)N1.[Br-] (stereo not shown) [EXAMPLE 3440],–,–,–,0.01
